Test [1] deals with Lu1. Nature of the test: Cytotoxicity against human Lu1 cells after 2 days by sulforhodamine B assay. Particulars: Lu1, 48 h, read-out: ED50 (the source's name). Format: functional.
The test system of test [2] is LNCaP. Put plainly: Cytotoxicity against hormone-dependent human LNCAP cells after 2 days by sulforhodamine B assay. Type of test: functional. The note with it: 48 h, read-out: ED50 (the source's name).
In test [3] the test system is MCF7. Nature of the test: Cytotoxicity against human MCF7 cells after 2 days by sulforhodamine B assay. Type of test: functional. Particulars: MCF7, 48 h, read-out: ED50 (the source's name).
Test [4] relates to MCF7. Put plainly: Cytotoxicity against human MCF7 cells after 2 days by sulforhodamine B assay in presence of 43 uM (-)-hydnocarpin. The note with it: MCF7, 48 h, read-out: ED50 (the source's name). Format: functional.
The subject of test [5] is MCF7. Nature of the test: Ratio ED50 for human MCF7 cells to ED50 for human MCF7 cells in presence of 43 uM (-)-hydnocarpin. Format: functional.
In test [6] the test system is MDR. Nature of the test: Inhibition of MDR pump assessed as potentiation of bruceantin-induced cytotoxicity against human MCF7 cells at 20 ug/mL after 2 days by sulforhodamine B assay. Type of test: cell-based.
Test [7] has as its system MDR. Nature of the test: Inhibition of MDR pump assessed as potentiation of bruceine A-induced cytotoxicity against human MCF7 cells at 20 ug/mL after 2 days by sulforhodamine B assay. Format: cell-based.

Each structure is given as a SMILES string. Bounds are passed on as bounds.

The record followed here is ChEMBL document CHEMBL1153891, “Bioactivity-guided isolation of cytotoxic constituents of Brucea javanica collected in Vietnam” (2009).

Turning to `C/C=C(\C)C(=O)O[C@@H]1C[C@]2(C)C(=CC[C@H]2[C@@H]2C[C@@H]([C@@H]3OC3(C)C)O[C@@H]2OC(C)=O)[C@@]2(C)[C@H]1[C@@]1(C)C=CC(=O)C(C)(C)[C@@H]1C[C@H]2OC(C)=O` [BRUCEAJAVANONE B], the EC50 in test [1], in test [2] and in test [3] was above 10 µM each time.

With `COC(=O)[C@@]12OC[C@]34[C@H]([C@@H](O)[C@@H]1O)[C@@]1(C)CC(=O)C(O)=C(C)[C@@H]1C[C@H]3OC(=O)[C@H](OC(=O)CC(C)C)[C@@H]24` [BRUCEINE A], the EC50 in test [1] came to 0.079 µM; in test [2], 0.096 µM; in test [3], 0.015 µM; in test [4], 0.0015 µM. The “Ratio ED50” value in test [5] is reported as 10.

For the compound `COC(=O)[C@@]12OC[C@]34[C@H]([C@@H](O)[C@@H]1O)[C@@]1(C)CC(=O)C(O)=C(C)[C@@H]1C[C@H]3OC(=O)[C@H](OC(=O)/C=C(\C)C(C)C)[C@@H]24` [BRUCEANTIN], the EC50 was 0.012 µM in test [1], 0.011 µM in test [2], 0.002 µM in test [3] and 0.00027 µM in test [4]. Further, the “Ratio ED50” value in test [5] was determined as 7.4.

With `C/C=C(\C)C(=O)O[C@@H]1C[C@@]2(C)[C@H]([C@@H]3C[C@@H]([C@@H]4OC4(C)C)O[C@@H]3OC(C)=O)CC[C@]2(C)[C@@H]2CC=C3C(C)(C)C(=O)C[C@H](O)[C@]3(C)[C@H]21` [BRUCEAJAVANINONE A], the EC50 in test [1], in test [2] and in test [3] was above 10 µM each time.

Regarding `CCCCCC(=O)O[C@@H]1C[C@]2(C)C(=CC[C@H]2[C@@H]2C[C@@H]([C@@H]3OC3(C)C)O[C@@H]2OC(C)=O)[C@@]2(C)[C@H]1[C@@]1(C)C=CC(=O)C(C)(C)[C@@H]1C[C@H]2OC(C)=O`, the EC50 in test [1], in test [2] and in test [3] was above 10 µM each time.

`CCCCCC(=O)O[C@@H]1C[C@]2(C)C(=CC[C@H]2[C@@H]2C[C@@H]([C@@H]3OC3(C)C)O[C@@H]2OC(C)=O)[C@]2(C)[C@H](O)C[C@H]3C(C)(C)C(=O)C=C[C@]3(C)[C@@H]12` [BRUCEAJAVANONE A]: the EC50 in test [1], in test [2] and in test [3] was above 10 µM throughout.

Take `COc1cc([C@@H]2Oc3ccc(-c4cc(=O)c5c(O)cc(O)cc5o4)cc3O[C@H]2CO)ccc1O`: the EC50 in test [1], in test [2] and in test [3] was above 10 µM in each case. The ED50 in test [6] and in test [7] was above 10 µM in each case.

For the compound `CC[C@@]1(O)C(=O)OCc2c1cc1n(c2=O)Cc2cc3ccccc3nc2-1` [CAMPTOTHECIN], the EC50 in test [1], in test [2] and in test [3] was above 10 µM in each case.

`C/C=C(\C)C(=O)O[C@@H]1C[C@]2(C)C(=CC[C@H]2[C@@H]2C[C@@H]([C@@H]3OC3(C)C)O[C@H]2OC)[C@]2(C)[C@H](OC(C)=O)C[C@H]3C(C)(C)C(=O)C[C@H](O)[C@]3(C)[C@@H]12` [BRUCEAJAVANONE C]: the EC50 in test [1], in test [2] and in test [3] was above 10 µM in each case.

On to `CC(=O)O[C@H]1C(=O)[C@@]2(C)[C@H]([C@H](OC(=O)c3ccccc3)[C@]3(O)C[C@H](OC(=O)[C@H](O)[C@@H](NC(=O)c4ccccc4)c4ccccc4)C(C)=C1C3(C)C)[C@]1(OC(C)=O)CO[C@@H]1C[C@@H]2O` [PACLITAXEL], for which the EC50 in test [1], in test [2] and in test [3] was above 10 µM throughout.
